# Measured values: patent publication EP0969013B1, “Peptides for inhibiting HPV E7 proteins” (Deutsches Krebsforschungszentrum Stiftung des öffentlichen …, priority 1998, dated 2003)
# Peptide text beside a SMILES is read from it.
# Legend:
# Assay type in all cases: cell-based
# [1] = system: E7/2 cells; assay: Cell cycle profile of E7/2 cells (propidium iodide, FACscan, CellQuest); conditions: 10 µM - 200 µM penetratin-fused synthesized peptide, 1 hour to 72 hours, marker for cell proliferation
# Protocol: (§1) • (A) Peptide No. 732 is chemically synthesized with a leader attached to the NH2 end and supporting the incorporation into cells. It is penetratin and originates from Drosophila antennapedia. Thus, peptide No. 732 is available as fusion polypeptide and has the following sequence: [formula] Cells are used in which HPV16 E7 is expressed and whose growth depends thereon. Such cells are e.g. E7/2 cells. They are transfected with 10 µM - 200 µM of the synthesized peptide No. 732. Growth rate, apoptosis and cell cycle profiles of the cells are determined 1 hour to 72 hours after the transfection. The former is effected by determining the cell number. As regards the second test, reference is made to Example 2 (A). As to the latter test, the cell DNA is stained with propidium iodide and its content is determined in a FACscan. On the basis thereof, the cell cycle profile is assessed by means of the CellQuest program (Schulze, A. et al., Proc. Natl. Acad. Sci, U.S.A. 92, (1995), 11264-11268), the number of cells in the S phase being taken as a marker for the cell proliferation. […] For this purpose, the BamHI/NdeI fragment (cf. Example 1) of pJM-1 is inserted in the vector pET 19b (Novagen company) so as to obtain the vector pH6-732. Thereafter, cleavage is carried out by means of Ndel and a TAT-cDNA of HIV-1 (Vives, E. et al., J. Biol. Chem. 272, (1997), 16010-16017) is inserted. […]
# [2] = system: E7/2 cells; assay: Apoptosis of E7/2 cells (propidium iodide, FACscan); conditions: 10 µM - 200 µM penetratin-fused synthesized peptide, 1 hour to 72 hours
# Protocol: 24 hours after the transfection, the cells are fixed and stained using propidium iodide. The cells are analyzed in a FACscan by measuring the fluorescence caused by propidium iodide. Apoptotic nuclei are shown as nuclei having a DNA content of less than 2N. The amount of apoptotic nuclei is determined in comparison with normal nuclei.
# • (A) Peptide No. 732 is chemically synthesized with a leader attached to the NH2 end and supporting the incorporation into cells. It is penetratin and originates from Drosophila antennapedia. Thus, peptide No. 732 is available as fusion polypeptide and has the following sequence: [formula] Cells are used in which HPV16 E7 is expressed and whose growth depends thereon. Such cells are e.g. E7/2 cells. They are transfected with 10 µM - 200 µM of the synthesized peptide No. 732. Growth rate, apoptosis and cell cycle profiles of the cells are determined 1 hour to 72 hours after the transfection. The former is effected by determining the cell number. […] As to the latter test, the cell DNA is stained with propidium iodide and its content is determined in a FACscan. On the basis thereof, the cell cycle profile is assessed by means of the CellQuest program (Schulze, A. et al., Proc. Natl. Acad. Sci, U.S.A. 92, (1995), 11264-11268), the number of cells in the S phase being taken as a marker for the cell proliferation. […]
# [3] = system: E7/2 cells; assay: Growth rate of E7/2 cells (cell number); conditions: 10 µM - 200 µM penetratin-fused synthesized peptide, 1 hour to 72 hours
# Protocol: as §1
smiles,measurement,setting,value
CC[C@H](C)[C@H](NC(=O)[C@H](CCCCN)NC(=O)[C@H](CCCCN)NC(=O)[C@H](Cc1c[nH]c2ccccc12)NC(=O)[C@H](CCCCN)NC(=O)[C@H](CCSC)NC(=O)[C@H](CCCNC(=N)N)NC(=O)[C@H](CCCNC(=N)N)NC(=O)[C@H](CC(N)=O)NC(=O)[C@H](CCC(N)=O)NC(=O)[C@H](Cc1ccccc1)NC(=O)[C@H](Cc1c[nH]c2ccccc12)NC(=O)[C@@H](NC(=O)[C@H](CCCCN)NC(=O)[C@@H](NC(=O)[C@H](CCC(N)=O)NC(=O)[C@@H](N)CCCNC(=N)N)[C@@H](C)CC)[C@@H](C)CC)C(=O)N[C@@H](C)C(=O)N[C@@H](C)C(=O)N[C@@H](CCCNC(=N)N)C(=O)N[C@@H](CC(C)C)C(=O)N[C@@H](CCCNC(=N)N)C(=O)N[C@@H](CC(C)C)C(=O)N[C@@H](CCCNC(=N)N)C(=O)N[C@@H](CS)C(=O)NCC(=O)N[C@H](C(=O)N[C@H](C(=O)N[C@@H](CC(C)C)C(=O)N[C@@H](CC(C)C)C(=O)N[C@@H](CC(C)C)C(=O)N[C@@H](CS)C(=O)N[C@H](C(=O)N[C@@H](CC(C)C)C(=O)N[C@@H](CC(=O)O)C(=O)N[C@@H](CC(C)C)C(=O)O)[C@@H](C)O)[C@@H](C)CC)C(C)C [peptide No. 732] (H-RQIKIWFQNRRMKWKKIAARLRLRCGVILLLCTLDL-OH),number of cells in the S phase,[1],reduces the number of cells in the S phase
same,apoptosis frequency,[2],lowers the apoptosis frequency
same,growth rate,[3],reduces the growth rate
